The values below come from patent publication US8609592B2, “2-(substituted phenyl)-6-amino-5-alkoxy, thioalkoxy and aminoalkyl-4-pyrimidinecarboxylates and their use as herbicides” (Dow AgroSciences LLC, priority 2007, dated 2013).

What is called melting point is the temperature of the solid-liquid transition.

The subject of data set [1] is Barnyardgrass (Echinochloa crus-galli). The data set is described as follows: General postemergence herbicidal activity, greenhouse. The following applies: post-emergence, 336 h, post-emergent, visual score after 14 days (0 no injury, 100 complete kill), read-out: % Growth Reduction ECHCG; for pest or weed control at 140 g/ha: 140 g ai/ha. The format is in vivo. How it is done:
(§1) Seeds or nutlets of the desired test plant species were planted in Sun Gro MetroMix® 360 planting mixture, which typically has a pH of 6.0 to 6.8 and an organic matter content of about 30 percent, in plastic pots with a surface area of 64 square centimeters. When required to ensure good germination and healthy plants, a fungicide treatment and/or other chemical or physical treatment was applied. The plants were grown for 7-21 days in a greenhouse with an approximate 15 hour photoperiod which was maintained at about 23-29° C. during the day and 22-28° C. during the night. Nutrients and water were added on a regular basis and supplemental lighting was provided with overhead metal halide 1000-Watt lamps as necessary. The plants were employed for testing when they reached the first or second true leaf stage.
(§2) A weighed amount, determined by the highest rate to be tested, of each test compound was dissolved in 4 mL of a 97:3 v/v (volume/volume) mixture of acetone and dimethyl sulfoxide (DMSO) to obtain concentrated stock solutions. […] The concentrated stock solutions obtained were diluted with 20 mL of an aqueous mixture containing acetone, water, isopropyl alcohol, DMSO, Atplus 411F crop oil concentrate, and Triton X-155 surfactant in a 48.5:39:10:1.5:1.0:0.02 v/v ratio to obtain spray solutions containing the highest application rates. Additional application rates were obtained by serial dilution of 12 mL of the high rate solution into a solution containing 2 mL of 97:3 v/v (volume/volume) mixture of acetone and dimethyl sulfoxide (DMSO) and 10 mL of an aqueous mixture containing acetone, water, isopropyl alcohol, DMSO, Atplus 411F crop oil concentrate, and Triton X-155 surfactant in a 48.5:39:10:1.5:1.0:0.02 v/v ratio to obtain ½×, ¼×, ⅛× and 1/16× rates of the high rate. Compound requirements are based upon a 12 mL application volume at a rate of 187 L/ha. Formulated compounds were applied to the plant material with an overhead Mandel track sprayer equipped with a 8002E nozzles calibrated to deliver 187 L/ha over an application area of 0.503 square meters at a spray height of […] above the average plant canopy height. Control plants were sprayed in the same manner with the solvent blank.
(§3) The treated plants and control plants were placed in a greenhouse as described above and watered by sub-irrigation to prevent wash-off of the test compounds. After 14 days, the condition of the test plants as compared with that of the untreated plants was determined visually and scored on a scale of 0 to 100 percent where 0 corresponds to no injury and 100 corresponds to complete kill.

The test system of data set [2] is Giant foxtail (Setaria faberi). Described as above. The following applies: post-emergence, 336 h, post-emergent, visual score after 14 days (0 no injury, 100 complete kill), read-out: % Growth Reduction SETFA; for pest or weed control at 140 g/ha: 140 g ai/ha; for pest or weed control at 280 g/ha: 280 g ai/ha. The format is in vivo. How it is done:
as §1, §2, §3

For data set [3], the system named is Velvetleaf (Abutilon theophrasti). Described as above. In kind it is in vivo. Conditions: post-emergence, 336 h, post-emergent, visual score after 14 days (0 no injury, 100 complete kill), read-out: % Growth Reduction ABUTH; for pest or weed control at 140 g/ha: 140 g ai/ha; for pest or weed control at 280 g/ha: 280 g ai/ha. How it is done:
as §1, §2, §3

The subject of data set [4] is Wild buckwheat (Polygonum convolvulus). The data set is described as above. In kind it is in vivo. Conditions: Fallopia convolvulus, post-emergence, 336 h, post-emergent, visual score after 14 days (0 no injury, 100 complete kill), read-out: % Growth Reduction POLCO; for pest or weed control at 140 g/ha: 140 g ai/ha; for pest or weed control at 280 g/ha: 280 g ai/ha. The procedure: as §1, §2, §3

`COC(=O)c1nc(-c2ccc(Cl)c(OC)c2F)nc(N)c1OC` [Compound 1, 6-amino-2-(4-chloro-2-fluoro-3-methoxyphenyl)-5-methoxypyrimidine-4-carboxylic acid methyl ester]: the pest or weed control at 140 g/ha in data set [1] was 100%; in data set [2] it was 95%; in data set [3] it was 100%; in data set [4], 100%.

`CCOC(=O)c1nc(-c2ccc(Cl)cc2)nc(N)c1OC` [Compound 2, 6-Amino-2-(4-chlorophenyl)-5-methoxypyrimidine-4-carboxylic acid ethyl ester]: the pest or weed control at 140 g/ha in data set [1] was 50%; in data set [2], 70%; in data set [3], 98%; in data set [4], 100%.

As to `CCOC(=O)c1nc(-c2cc(C)c(Cl)cc2F)nc(N)c1OC` [Compound 3, 6-Amino-2-(4-chloro-2-fluoro-5-methylphenyl)-5-methoxypyrimidine-4-carboxylic acid ethyl ester], the pest or weed control at 280 g/ha amounted to 0% in data set [1] (280 g ai/ha), 0% in data set [2], 60% in data set [3] and 85% in data set [4].

As for `CCOC(=O)c1nc(-c2ccc(Cl)c(F)c2)nc(N)c1OC` [Compound 9, 6-Amino-2-(4-chloro-3-fluorophenyl)-5-methoxypyrimidine-4-carboxylic acid ethyl ester], the pest or weed control at 140 g/ha was 90% in data set [1], 30% in data set [2], 95% in data set [3] and 100% in data set [4].

As to `CCOC(=O)c1nc(-c2ccc(C)cc2F)nc(N)c1OC` [Compound 10, 6-Amino-2-(2-fluoro-4-methylphenyl)-5-methoxypyrimidine-4-carboxylic acid ethyl ester], the pest or weed control at 140 g/ha in data set [1] worked out at 10%; in data set [2] it was 0%; in data set [3], 100%; in data set [4], 90%.

Turning to `CCOC(=O)c1nc(-c2ccc(C(F)(F)F)cc2)nc(N)c1OC` [Compound 11, 6-Amino-5-methoxy-2-(4-trifluoromethylphenyl)pyrimidine-4-carboxylic acid ethyl ester], the pest or weed control at 140 g/ha in data set [1] turned out to be 85%; in data set [2] it was 0%; in data set [3], 90%; in data set [4], 85%.

Consider `CCOC(=O)c1nc(-c2ccc3c(c2)OCO3)nc(N)c1OC` [Compound 12, 6-Amino-2-benzo[1,3]-dioxol-5-yl-5-methoxypyrimidine-4-carboxylic acid ethyl ester], for which the pest or weed control at 140 g/ha stood at 85% in data set [1], 90% in data set [2], 50% in data set [3] and 80% in data set [4].

Regarding `CCOC(=O)c1nc(-c2ccc(Cl)cc2F)nc(N)c1OC` [Compound 13, 6-Amino-2-(4-chloro-2-fluorophenyl)-5-methoxypyrimidine-4-carboxylic acid ethyl ester], the pest or weed control at 140 g/ha in data set [1] worked out at 0%; in data set [2], 35%; in data set [3], 100%; in data set [4], 100%.

Take `CCOC(=O)c1nc(-c2ccc(Cl)c(C(C)F)c2F)nc(N)c1OC` (stereo not shown) [Compound 14, 6-Amino-2-[4-chloro-2-fluoro-3-(1-fluoroethyl)phenyl]-5-methoxypyrimidine-4-carboxylic acid ethyl ester]: the pest or weed control at 140 g/ha in data set [1], in data set [2], in data set [3] and in data set [4] was 100% throughout.

Turning to `CCOC(=O)c1nc(-c2cc(OC)c(Cl)cc2F)nc(N)c1OC` [Compound 16, 6-Amino-2-(4-chloro-2-fluoro-5-methoxyphenyl)-5-methoxypyrimidine-4-carboxylic acid ethyl ester], the pest or weed control at 140 g/ha turned out to be 0% in data set [1], 10% in data set [2], 60% in data set [3] and 100% in data set [4].

In the case of `CCOc1c(N)nc(-c2ccc(Cl)c(OC)c2F)nc1C(=O)O` [Compound 18, 6-Amino-2-(4-chloro-2-fluoro-3-methoxyphenyl)-5-ethoxy-pyrimidine-4-carboxylic acid], the pest or weed control at 280 g/ha in data set [2] is 70%; in data set [3] it was 70%; in data set [4] it was 100%.

On to `COC(=O)c1nc(-c2ccc(Cl)c(OC)c2F)nc(N)c1SC` [Compound 19, 6-Amino-2-(4-chloro-2-fluoro-3-methoxyphenyl)-5-methylsulfanylpyrimidine-4-carboxylic acid methyl ester], for which the pest or weed control at 195 g/ha in data set [1] (195 g ai/ha) was 90%; in data set [2] (195 g ai/ha), 85%; in data set [3] (195 g ai/ha), 90%; in data set [4] (195 g ai/ha), 100%.

For `COc1c(Cl)ccc(-c2nc(N)c(SC)c(C(=O)O)n2)c1F` [Compound 21, 6-Amino-2-(4-chloro-2-fluoro-3-methoxyphenyl)-5-methylsulfanyl-pyrimidine-4-carboxylic acid], the pest or weed control at 140 g/ha in data set [1] turned out to be 100%; in data set [2], 60%; in data set [3], 85%; in data set [4] it was 100%.

For `COc1c(N)nc(-c2ccc(Cl)c(OC)c2F)nc1C(=O)O` [Compound 22, 6-Amino-2-(4-chloro-2-fluoro-3-methoxyphenyl)-5-methoxypyrimidine-4-carboxylic acid], the pest or weed control at 140 g/ha in data set [1], in data set [2], in data set [3] and in data set [4] was 100% in each case.

`COc1c(N)nc(-c2ccc(C)cc2F)nc1C(=O)O` [Compound 28, 6-Amino-2-(2-fluoro-4-methylphenyl)-5-methoxypyrimidine-4-carboxylic acid] had a melting point of 94 to 97 °C.

In the case of `COc1c(N)nc(-c2ccc(Cl)cc2F)nc1C(=O)O` [Compound 31, 6-Amino-2-(4-chloro-2-fluorophenyl)-5-methoxypyrimidine-4-carboxylic acid], the pest or weed control at 140 g/ha in data set [1] is 85%; in data set [2] it was 70%; in data set [3] it was 100%; in data set [4] it was 100%.

For `COc1c(N)nc(-c2ccc(C)cc2)nc1C(=O)O` [Compound 32, 6-Amino-5-methoxy-2-p-tolylpyrimidine-4-carboxylic acid], the pest or weed control at 140 g/ha came out at 95% in data set [1], 65% in data set [2], 80% in data set [3] and 100% in data set [4].
